The values below come from PMC6278284, “Synthesis of Jacaranone-Derived Nitrogenous Cyclohexadienones and Their Antiproliferative and Antiprotozoal Activities” (Molecules, 2018).

Molecules are shown by their SMILES.

For data set [1], the system named is P. falciparum, strain NF54, erythrocytic stages. Nature of the data set: In vitro growth inhibition assay of Plasmodium falciparum NF54 ([3H]-hypoxanthine incorporation). The format is cell-based. The note with it: for IC50: Plasmodium falciparum, strain NF54, erythrocytic stages, read-out: P. falc. IC50; for SI (IC50 in L6 cells/IC50 P. falciparum): ratio IC50 L6 / IC50 P. falciparum NF54. As to the method: In vitro activity against erythrocytic stages of P. falciparum was determined by a modified [^3H]-hypoxanthine incorporation assay using the drug-sensitive NF54 strain and the standard drug, chloroquine (Sigma C6628). Briefly, parasite cultures incubated in RPMI 1640 medium with 5% AlbuMAX^TM (without hypoxanthine) were exposed to serial drug dilutions in microtiter plates. After 48 h of incubation at 37 °C in a reduced oxygen atmosphere, 0.5 μCi [^3H]-hypoxanthine was added to each well of the plate. Cultures were incubated for a further 24 h before they were harvested onto glass-fiber filters and washed with distilled water. The radioactivity was counted using a Betaplate^TM liquid scintillation counter (Wallac, Zurich). The results were recorded as counts per minute (CPM) per well at each drug concentration and expressed as a percentage of the untreated controls. IC50 values were calculated from the sigmoidal inhibition curves using Microsoft Excel.

Data set [2] has as its system T. brucei rhodesiense, strain STIB900 trypomastigote forms. In words: In vitro growth inhibition assay of Trypanosoma brucei rhodesiense (Alamar Blue). The format is cell-based. The note with it: for IC50: Trypanosoma brucei, 72 h, strain STIB900, trypomastigote forms, read-out: T.b.rhod. IC50; for SI (IC50 in L6 cells/IC50 T. b. rhodesiense): ratio IC50 L6 / IC50 T. b. rhodesiense STIB900. As to the method:
Trypanosoma brucei rhodesiense, STIB 900 strain, and the standard drug, melarsoprol, were used for the assay. Minimum Essential Medium (50 μL) supplemented with 25 mM HEPES, 1g/L additional glucose, 1% MEM non-essential amino acids (100×), 0.2 mM 2-mercaptoethanol, 1 mM Na-pyruvate, and 15% heat-inactivated horse serum was added to each well of a 96-well microtiter plate. Serial drug dilutions of 11 three-fold dilution steps covering a range from 100 to 0.002 μg/mL were prepared. Then, 4 × 10^3 bloodstream forms of T. b. rhodesiense (STIB 900) in 50 μL were added to each well and the plate was incubated at 37 °C under a 5% CO2 atmosphere for 72 h. 10 μL Alamar Blue (resazurin, 12.5 mg in 100 mL double-distilled water) was then added to each well and incubation continued for a further 2–4 h. Then, the plates were read with a Spectramax Gemini XS microplate fluorometer (Molecular Devices Cooperation, Sunnyvale, CA, USA) using an excitation wavelength of 536 nm and an emission wavelength of 588 nm. The IC50 values were calculated from the sigmoidal inhibition curves using the microplate reader software, Softmax Pro (Molecular Devices Cooperation, Sunnyvale, CA, USA). Melarsoprol was used as the control.
A general note: Resazurin is reduced to fluorescent resorufin, in cell work by metabolically active cells.

Data set [3] relates to L6 cells rat skeletal myoblasts. In words: Cytotoxicity against L6 cells (Alamar Blue). The following applies: L6 rat skeletal myoblasts, 72 h; read-out: Cyt. L6 IC50. The data set is classed as cell-based. As to the method: Assays were performed in 96-well microtiter plates, each well containing 100 μL of RPMI 1640 medium supplemented with 1% L-glutamine (200 mM) and 10% foetal bovine serum, and 4000 L6 cells (a […] cell line derived from rat skeletal myoblasts). Serial drug dilutions of 11 threefold dilution steps covering a range from 100 to 0.002 μg/mL were prepared. After 72 h of incubation, the plates were inspected under an inverted microscope to assure growth of the controls and sterile conditions. 10 μL of Alamar Blue solution was then added to each well and the plates incubated for another 2 h. Then, the plates were read with a Spectramax Gemini XS microplate fluorometer (Molecular Devices Cooperation, Sunnyvale, CA, USA) using an excitation wavelength of 536 nm and an emission wavelength of 588 nm. The IC50 values were calculated by linear regression from the sigmoidal dose inhibition curves using the microplate reader software, Softmax Pro (Molecular Devices Cooperation, Sunnyvale, CA, USA). Podophyllotoxin (Sigma P4405) was used as the control.

For another data set, the system named is CCRF-CEM leukemia cells. In words: XTT viability assay, CCRF-CEM. The following applies: Homo sapiens, 72 h, read-out: metabolic active cells in % of control. The data set is classed as cell-based. As to the method:
(§1) Human CCRF-CEM leukemia and MDA-MB-231 breast cancer cells lines were kept in RPMI1640 medium (Gibco®, ThermoFisher Scientific Inc., New York, NY, USA), supplemented with 2 mM L-glutamine (Gibco®), 10% heat-inactivated foetal bovine serum (FBS, Gibco®), 100 units/mL Penicillin (PAA), and 100 µg/mL Streptomycin (Gibco®) (1% Pen/Strep). HCT-116 and U251 cells were cultured in high-glucose Dulbecco’s Modified Eagle Medium (DMEM, Gibco®) containing 2 mM L-glutamine, 10% FBS, and 1% Pen/Strep. MRC-5 cells were grown in Minimum Essential Medium (MEM, Gibco®) supplemented with 2 mM L-glutamine, 10% FBS, and 1% Pen/Strep. All cells were kept in a humidified 5% CO2 atmosphere at 37 °C and passaged at 90% confluence.
(§2) A Cell Proliferation Kit II (XTT) was purchased from Sigma-Aldrich and performed as described previously and in accordance with the manufacturer’s protocol. In brief, adherent cell lines were seeded at a density of 50,000 cells/mL or 100,000 cells/mL (MRC-5) in 96 well plates (100 µL, flat bottom) and grown for 24 h before test compounds were added. Suspension cells (CCRF-CEM) were seeded at 100,000 cells/mL and test compounds were added immediately. After 72 h, XTT solution was added for another 90 min or 4 h (CCRF-CEM cells) and absorbance was measured at 490 nm with a reference wave length of 650 nm (Hidex Sense Microplate Reader 425-301, Hidex, Turku, Finland). Results are expressed as a percentage of the vehicle-treated (0.5% DMSO) control cells. Vinblastine served as the positive control (0.01 µg/mL).
In general terms: Tetrazolium assays rely on reduction of a dye to a coloured formazan, in cell work by metabolically active cells.

The test system of data set [4] is MDA-MB-231 breast cancer cells. In words: XTT viability assay, MDA-MB-231. The data set is classed as cell-based. The following applies: Homo sapiens, 72 h, read-out: metabolic active cells in % of control; for viability at 5 µg/mL: MDA-MB-231, 5 µg/mL; for viability at 50 µg/mL: MDA-MB-231, 50 µg/mL. As to the method: as §1, §2
Data set [5] deals with HCT-116 colon cancer cells. In words: XTT viability assay, HCT-116. The note with it: Homo sapiens, 72 h, read-out: metabolic active cells in % of control; for viability at 5 µg/mL: HCT 116, 5 µg/mL; for viability at 50 µg/mL: HCT 116, 50 µg/mL. The data set is classed as cell-based. As to the method:
as §1, §2

Another data set deals with U251 glioblastoma cells. Nature of the data set: XTT viability assay, U251. The format is cell-based. The note with it: Homo sapiens, U-251, 72 h, read-out: metabolic active cells in % of control; for viability at 5 µg/mL: U251, 5 µg/mL; for viability at 50 µg/mL: U251, 50 µg/mL. As to the method:
as §1, §2

For data set [6], the system named is MRC-5 non-tumorigenic lung fibroblasts. Nature of the data set: XTT viability assay, MRC-5. The format is cell-based, human. The note with it: Homo sapiens, MRC5, 72 h, read-out: metabolic active cells in % of control; for viability at 5 µg/mL: MRC-5, 5 µg/mL; for viability at 50 µg/mL: MRC-5, 50 µg/mL. As to the method: as §1, §2

The compound `O=C1C=CC(O)(CCN2C(=O)C3CCCCC3C2=O)C=C1` (centres unmarked) [Compound 13h, N-[2-(1-Hydroxy-4-oxocyclohexa-2,5-dien-1-yl)ethyl]hexahydrophthalimide] showed a melting point of 135 to 136 °C. Besides, in data set [1], the 50% inhibitory concentration (IC50) stood at 3040 nM and the “SI (IC50 in L6 cells/IC50 P. falciparum)” value came to 1.0. In data set [2], the IC50 was 1700 nM and the “SI (IC50 in L6 cells/IC50 T. b. rhodesiense)” value is reported as 1.7. For the same compound, in [3], the IC50 was 2960 nM. In the data set with CCRF-CEM leukemia cells, the viability at 5 µg/mL is 15.7% and the viability at 50 µg/mL came to 0.69%. For the same compound, in [4], the viability at 5 µg/mL was 70.8% and the viability at 50 µg/mL is 16.4%. In addition, in data set [5], the viability at 5 µg/mL is 44.3% and the viability at 50 µg/mL turned out to be 0.49%. Besides, in the data set with U251 glioblastoma cells, the viability at 5 µg/mL amounted to 74.9% and the viability at 50 µg/mL stood at 0.18%. Further, in data set [6], the viability at 5 µg/mL came to 57.6% and the viability at 50 µg/mL was 0.76%.

The compound `O=C1C=CC(O)(CCN2C(=O)C3CCCCC3C2O)C=C1` (centres unmarked) [Compound 15, 3-Hydroxy-N-[2-(1-hydroxy-4-oxocyclohexa-2,5-dien-1-yl)ethyl]octahydroisoindole-1-one] displayed a melting point of 127 to 128 °C. In data set [1], the IC50 was 6180 nM and the “SI (IC50 in L6 cells/IC50 P. falciparum)” value is listed as 2.0. In data set [2], the IC50 is 1520 nM and the “SI (IC50 in L6 cells/IC50 T. b. rhodesiense)” value was 8.3. In addition, in data set [3], the IC50 came out at 12600 nM. Besides, in the data set on CCRF-CEM leukemia cells, the viability at 5 µg/mL is 42.4% and the viability at 50 µg/mL worked out at 0.57%. In data set [4], the viability at 5 µg/mL was determined as 105% and the viability at 50 µg/mL is 6.05%. In [5], the viability at 5 µg/mL was 111% and the viability at 50 µg/mL was determined as 1.44%. Also, in the data set on U251 glioblastoma cells, the viability at 5 µg/mL was 97.6% and the viability at 50 µg/mL stood at 2.24%. Moreover, in data set [6], the viability at 5 µg/mL worked out at 135% and the viability at 50 µg/mL was found to be 4.47%.

A word on the IC50: it is the concentration that inhibits the measured activity by half. In general, melting point refers to the temperature of the solid-liquid transition.
